Assay results: PubChem BioAssay (NCI)
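Where inhibition never reached the appropriate level, the endpoint shown equals the highest concentration tested. Otherwise, values were interpolated linearly from a five-concentration, 48-hour dose response in 96-well plates. Abbreviation: GI50, concentration required for 50% inhibition of growth. TGI: concentration producing complete growth inhibition.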

Tests used:
Experiment in all cases: inhibition of tumour cell growth, NCI panel, 48 h
[1] = system: A549 NSCLC
[2] = system: HCC-2998 colon
[3] = system: NCI-H226 lung
[4] = system: OVCAR-3 ovarian
[5] = system: OVCAR-8 ovarian
[6] = system: RPMI-8226 leukemia
[7] = system: RXF 393 renal
[8] = system: SK-MEL-2 melanoma
[9] = system: SW-620 colon
[10] = system: UACC-62 melanoma

SMILES | TGI [1] | TGI [2] | TGI [3] | TGI [4] | TGI [5] | TGI [6] | TGI [7] | TGI [8] | TGI [9] | TGI [10] | GI50 [1] | GI50 [2] | GI50 [3] | GI50 [4] | GI50 [5] | GI50 [6] | GI50 [7] | GI50 [8] | GI50 [9] | GI50 [10]
CCO/C(CCn1[nH]c(=O)c(Cl)c(Cl)c1=O)=N\NC(=O)C(=O)NN | > 100 µM | > 100 µM | > 100 µM | > 100 µM | > 100 µM | > 100 µM | > 100 µM | > 100 µM | > 100 µM | > 100 µM |  |  |  |  |  |  |  |  |  | 
CC(CN(C)C)S(=O)(=O)c1ccc(-c2cnc(N)c(C(=O)Nc3ccccc3)n2)cc1 (centres undefined) | > 46.1 µM | 16.6 µM | 35.4 µM | 32.9 µM | > 89.8 µM | 48.9 µM | 8.4 µM | 17.6 µM | 19.2 µM | 21.6 µM | 2.86 µM | 0.973 µM | 12.9 µM | 5.83 µM | 10.3 µM | 13.8 µM | 1.52 µM | 4.31 µM | 3.84 µM | 6.28 µM
COC1(OC)C2(Cl)C(Cl)=C(Cl)C1(Cl)C1c3ccc(C(C)=O)c4cccc(c34)C12 (centres undefined) | > 100 µM | 52.7 µM | 81.4 µM | > 100 µM | > 100 µM | > 100 µM | > 100 µM | 50.1 µM | > 100 µM | > 100 µM |  |  |  |  |  |  |  |  |  | 
CC/C=C\C[C@H](O)C/C=C1/C(=O)C=C[C@@H]1C/C=C\CCCC(=O)OC(C)C | 5.88 µM | 3.38 µM | 6.08 µM | 1.71 µM | 8.38 µM | 0.939 µM | 3.27 µM | 4.77 µM | 2.32 µM | 3.16 µM | 2.48 µM | 1.87 µM | 2.58 µM | 0.483 µM | 2.8 µM | 0.371 µM | 1.76 µM | 2.02 µM | 0.572 µM | 1.37 µM
C=C(C)[C@@H]1CC[C@]2(COCCCNCCCN)CC[C@]3(C)[C@H](CC[C@@H]4[C@@]5(C)CC[C@H](OCCCN)C(C)(C)[C@@H]5CC[C@]43C)[C@@H]12 | 1.71 µM | 1.81 µM | 2.34 µM | 1.72 µM | 1.72 µM | 2.56 µM | 1.61 µM | 13.8 µM | 1.67 µM | 1.67 µM | 0.909 µM | 0.96 µM | 1.04 µM | 0.942 µM | 0.903 µM | 1.07 µM | 0.825 µM | 6.86 µM | 0.871 µM | 0.914 µM
O=C1/C(=C/c2ccc(F)c(F)c2)CN(C(=O)C(Cl)Cl)C/C1=C\c1ccc(F)c(F)c1 | 1.09 µM | 0.235 µM | 5.72 µM | 0.234 µM | 1.31 µM | 0.0871 µM | 0.399 µM | 0.785 µM | 0.0554 µM | 0.365 µM | 0.262 µM | 0.0934 µM | 1.13 µM | 0.0709 µM | 0.0564 µM | 0.0186 µM | 0.182 µM | 0.262 µM | 0.0215 µM | 0.172 µM
CN(C)C[C@H]1CCn2c(c(C3=C(c4cn(C)c5ccccc45)C(=O)NC3=O)c3ccccc32)C1 | 11.7 µM | 9.16 µM | 14.1 µM | 8.97 µM | 13.2 µM | 10.5 µM | 7.18 µM | 9.23 µM | 8.89 µM | 7.98 µM | 5.11 µM | 4.86 µM | 5.13 µM | 4.54 µM | 5.6 µM | 4.88 µM | 3.67 µM | 4.97 µM | 4.42 µM | 4.15 µM
C=C1C(=O)O[C@H]2[C@H]1CC/C(Cn1cc(Cc3c[nH]c4ccccc34)nn1)=C\CC[C@@]1(C)O[C@@H]21 | 23.5 µM | 3.92 µM | 4.75 µM | 3.15 µM | 10.7 µM | 5.35 µM | 3.63 µM | 3.95 µM | 3.56 µM | 3.13 µM | 8.63 µM | 2.18 µM | 2.1 µM | 1.73 µM | 3.44 µM | 2.11 µM | 1.63 µM | 1.98 µM | 1.74 µM | 1.66 µM
CCOP(=O)(OCC)/C(C#N)=C\c1ccsc1 | > 100 µM | > 100 µM | > 100 µM | > 100 µM | > 100 µM | > 100 µM | > 100 µM | > 100 µM | > 100 µM | > 100 µM |  |  |  |  |  |  |  |  |  | 
O=C(O)C(Br)C(Br)C(=O)O (centres undefined) | > 100 µM | > 100 µM | > 100 µM | > 100 µM | > 100 µM | > 100 µM | > 100 µM | > 100 µM | > 100 µM | > 100 µM |  |  |  |  |  |  |  |  |  | 
CCCCC[C@H]1CC=C2C(=O)C=C[C@@H]2CC=CCCCC(=O)O[C@@H](CCCCC)CC=C2C(=O)C=C[C@@H]2CC=CCCCC(=O)O[C@@H](CCCCC)CC=C2C(=O)C=C[C@@H]2CC=CCCCC(=O)O1 | 2.12 µM | 0.888 µM | 3.81 µM | 0.532 µM | > 8.75 µM | 0.821 µM | 0.422 µM | 0.969 µM | 1.51 µM | 0.545 µM | 0.529 µM | 0.264 µM | 1.13 µM | 0.192 µM | 0.277 µM | 0.256 µM | 0.194 µM | 0.281 µM | 0.373 µM | 0.204 µM
CCN(CC)CCC(=O)OC1C(C)=CC(C)C(=O)CC(C(C)CC2CCC(O)C(OC)C2)OC(=O)C2CCCCN2C(=O)C(=O)[C@@]2(O)OC(CCC2C)CC(OC)\C(C)=C/C=C/C=C/C(C)CC(C)C(=O)C1OC (some centres undefined) | 16.6 µM | 21.8 µM | 26.8 µM | 23.5 µM | 22.5 µM | 43.2 µM | 15.2 µM | 18.9 µM | 25.3 µM | 19.8 µM |  |  |  |  |  |  |  |  |  | 
CCCCCCCN(CCCCCCC)C(=N)c1ccnc2ccccc12 | 3.41 µM | 2.77 µM | 3.78 µM | 2.84 µM | 3.48 µM | 4.21 µM | 2.99 µM | 3.35 µM | 2.91 µM | 3.05 µM | 1.77 µM | 1.42 µM | 1.88 µM | 1.45 µM | 1.63 µM | 1.65 µM | 1.44 µM | 1.71 µM | 1.28 µM | 1.52 µM
CCN(CCCl)CCCCCNc1c2ccccc2nc2ccc(OC)cc12 | 4.4 µM | 2.94 µM | 2.3 µM | 7.28 µM | 1.96 µM | 1.47 µM | 2.4 µM | 2.7 µM | 1.63 µM | 1.8 µM |  |  |  |  |  |  |  |  |  | 
CCNc1cc2oc(=O)cc(C(F)(F)F)c2cc1C | > 100 µM | > 100 µM | > 100 µM | > 100 µM | > 100 µM | > 100 µM | > 100 µM | > 100 µM | > 100 µM | > 100 µM |  |  |  |  |  |  |  |  |  | 
COc1ccc(-c2nsc3c2NC(=O)CC3c2ccc3c(c2)OCCO3)cc1 (centres undefined) | > 100 µM | 19.5 µM | > 26.6 µM | 1.15 µM | > 100 µM | 42.4 µM |  | > 100 µM | > 100 µM | > 100 µM | 0.603 µM | 1.38 µM | 5.19 µM | 0.327 µM | 1.02 µM | 0.492 µM | 0.629 µM | 7.24 µM | 0.384 µM | 0.482 µM
Oc1[nH]c(N=C2N=c3ccccc3=N2)c2ccccc12 | 41.1 µM | > 100 µM | 30 µM | 19.2 µM | 46.4 µM | 72.1 µM | 22.2 µM | 29.7 µM | 32.4 µM | 36 µM | 8.67 µM | 17.4 µM | 10.4 µM | 5.16 µM | 11.4 µM | 14.9 µM | 8.85 µM | 11.1 µM | 10.6 µM | 11.8 µM
